The source of these data is patent publication US8278469B2, “17-hydroxy-17-pentafluoroethyl-estra-4,9(10)-dien-11-aryl derivatives, method of production thereof and use thereof for the treatment of diseases” (Bayer Pharma Aktiengesellschaft, priority 2009, dated 2012).

Data set [1] addresses T1, human progesterone receptor B (PR-B) (Homo sapiens, UniProt P06401).
T1 construct: expressed in transfected cells; host or cells: SK-N-MC human neuroblastoma cells, stably transfected with pRChPR-B-neo and pMMTV-LUC
T1 sequence (P06401 1-933): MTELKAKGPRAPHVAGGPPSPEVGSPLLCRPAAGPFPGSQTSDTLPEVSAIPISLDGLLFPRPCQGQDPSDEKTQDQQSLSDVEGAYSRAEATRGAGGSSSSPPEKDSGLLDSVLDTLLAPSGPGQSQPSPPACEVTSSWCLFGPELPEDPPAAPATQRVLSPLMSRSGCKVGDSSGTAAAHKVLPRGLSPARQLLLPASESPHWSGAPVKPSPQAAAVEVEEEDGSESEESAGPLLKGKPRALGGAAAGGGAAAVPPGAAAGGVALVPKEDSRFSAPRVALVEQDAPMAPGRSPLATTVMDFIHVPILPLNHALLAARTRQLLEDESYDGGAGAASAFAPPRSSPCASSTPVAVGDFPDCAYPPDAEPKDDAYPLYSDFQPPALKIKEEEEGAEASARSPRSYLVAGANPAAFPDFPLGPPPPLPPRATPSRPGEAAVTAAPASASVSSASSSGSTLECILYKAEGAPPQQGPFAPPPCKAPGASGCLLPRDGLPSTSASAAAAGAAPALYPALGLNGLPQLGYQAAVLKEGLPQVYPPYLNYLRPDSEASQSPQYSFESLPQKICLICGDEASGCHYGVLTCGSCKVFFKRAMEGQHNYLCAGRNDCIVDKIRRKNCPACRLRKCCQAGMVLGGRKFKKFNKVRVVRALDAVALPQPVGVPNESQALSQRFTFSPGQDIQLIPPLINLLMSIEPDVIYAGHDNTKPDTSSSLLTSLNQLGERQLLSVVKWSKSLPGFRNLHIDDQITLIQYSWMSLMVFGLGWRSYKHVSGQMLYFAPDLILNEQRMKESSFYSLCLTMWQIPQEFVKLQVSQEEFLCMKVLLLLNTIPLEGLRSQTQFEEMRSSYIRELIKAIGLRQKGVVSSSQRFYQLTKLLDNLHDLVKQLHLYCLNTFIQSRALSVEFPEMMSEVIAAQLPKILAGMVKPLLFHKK
The data set is described as follows: Progesterone receptor-antagonistic action in stable transfectants of SK-N-MC cells with human PR-B and MTV-LUC reporter. The class given is cell-based. As to conditions: SK-N-MC, 24 h, read-out: Progesterone receptor B (PR-B) Efficacy. As for the experimental part: Progesterone Receptor-Antagonistic Action in Stable Transfectants of Human Neuroblastoma Cells (SK-N-MC Cells) with the Human Progesterone A or Progesterone B Receptor and an MTV-LUC Reporter Construct
SK-N-MC cells (human neuroblastoma cells), which have been stably transfected with plasmids, which express the human progesterone receptor B (pRChPR-B-neo) or the human progesterone receptor A (pRChPR-A-neo) and a reporter construct (pMMTV-LUC), were incubated for 24 hours either in the absence (negative control) or in the presence of increasing amounts of the respective test compound (0.01 nmol/l, 0.1 nmol/l, 1 nmol/l, 10 nmol/l, 100 nmol/l and 1 μmol/l), in order to determine the agonistic efficacy. As positive control of reporter gene induction, the cells were treated with the synthetic gestagen promegestone (0.01 nmol/l, 0.1 nmol/l, 1 nmol/l, 10 nmol/l, 100 nmol/l and 1 μmol/l). For determination of the antagonistic activity, the cells were treated with 0.1 nmol/l promegestone and additionally with increasing amounts of the respective test compound (0.01 nmol/l, 0.1 nmol/l, 1 nmol/l, 10 nmol/l, 100 nmol/l and 1 μmol/l). The activity of the LUC reporter gene (LUC=luciferase) was determined in the cell lysates and was measured as RLU (relative light units). All measured values are given as percentage efficacy and as EC50 or IC50 concentrations.
11β-(4-Acetylphenyl)-20,20,21,21,21-pentafluoro-17-hydroxy-19-nor-17α-pregna-4,9-dien-3-one and 20,20,21,21,21-pentafluoro-17-hydroxy-11β-[4-(hydroxyacetyl)phenyl]-19-nor-17α-pregna-4,9-dien-3-one, very potent and therefore preferred examples from WO98/34947 and WO2008/058767, were tested as comparative compounds along with the test compound.

A short description of data set [2]: Metabolic stability in human liver microsomes (HLM). The class given is in vitro ADME. As to conditions: HLM 0.5 mg/ml protein, 1 μM, 37° C., pH 7.4; well-stirred model, phase I reactions. The procedure:
Metabolic Stability of (11β,17β)-17-hydroxy-11-[4-(methylsulphonyl)phenyl]-17-(pentafluoroethyl)estra-4,9-dien-3-one and (11β,17β)-17-hydroxy-11-[4′-(methylsulphonyl)-biphenyl-4-4-yl]-17-(pentafluoroethyl)estra-4,9-dien-3-one in Human Liver Microsomes (HLM)
Isolated human liver microsomes (HLM) were used for assessing the metabolic stability of compounds of general formula I.
Incubations were carried out with 2.4 ml of HLM solution (0.5 mg/ml protein content), 30 μl of the test compound (final concentration 1 μM) and 0.6 ml of the cofactor mixture (=NADPH-generating system of 3 IU glucose-6-phosphate dehydrogenase, 14.6 mg glucose-6-phosphate, 1.2 mg NADP) at 37° C. in 100 mM phosphate buffer at pH 7.4. Samples are taken at 6 time points (2-60 min), precipitated with an equal volume of methanol and the recovery of the test substances used in the supernatant is determined by LC-MS/MS analysis. The intrinsic clearance of the substance in the liver microsome preparation can be calculated from the half-life found for the breakdown of the substance. Based on this, together with various physiological characteristics according to the well-stirred model, it is then possible to predict a (metabolic) in vivo clearance with respect to phase I reactions. […]
For orientation: Microsomes from liver hold many membrane-bound enzymes, among them those of drug oxidation.

The test system of another data set is cardiovascular system. The data set can be described thus: Action on the cardiovascular system (incl. ECG) of anaesthetized beagle dogs. The data set is classed as in vivo. As to conditions: anaesthetized female beagle dogs, i.v. 0.1; 0.33 and 1 mg/kg, in comparison with the control. The procedure:
Investigation of the Action on the Cardiovascular System (Incl. ECG) of Anaesthetized Beagle Dogs
(11β,17β)-17-Hydroxy-11-[4-(methylsulphonyl)phenyl]-17-(pentafluoroethyl)estra-4,9-dien-3-one, dissolved in a mixture of PEG 400 and HP-β-CD (60% PEG 400, 40% HP-β-CD 30%), was administered intravenously to anaesthetized female beagle dogs. The body weight of the dogs was >9 kg. 3 dogs were treated per group and additionally 3 dogs in the control group. 0.1; 0.33 and 1 mg/kg of the substance was administered in 3 consecutive infusions, in each case over a period of 30 minutes. The maximum amount of vehicle was 0.4 ml per kg for 30 minutes. Blood samples were taken from the animals at various time points. The highest plasma level (average for all 3 animals) was 1650 ng/ml at the end of the third infusion.

The nature of data set [3]: Chemical stability against temperature, light and oxidative stress. Conditions: compared with the analogue with an alkanoyl or hydroxyalkanoyl group. The class given is physicochemical.

Consider `C[C@]12C[C@H](c3ccc(S(C)(=O)=O)cc3)C3=C4CCC(=O)C=C4CC[C@H]3[C@@H]1CC[C@@]2(O)C(F)(F)C(F)(F)F` [Example 4, (11β,17β)-17-Hydroxy-11-[4-(methylsulphonyl)phenyl]-17-(pentafluoroethyl)estra-4,9-dien-3-one], for which the Emax in data set [1] is 100%. The “(metabolic) in vivo clearance in humans predicted” value in data set [2] was 1.7 mL/min/kg. Also, the “Effects on the cardiovascular system (pulmonary artery pressure, systemic arterial blood pressure, heart rate, ECG)” value with cardiovascular system is on record as “no biologically relevant effects on the cardiovascular system”. For the same compound, in data set [3], the Oxidation sensitivity entry is reported as “surprisingly low oxidation sensitivity”, the “Stability under the influence of UV light” value is given as “surprisingly high stability” and the “Stability under thermal load” value is “surprisingly high stability”.
